One molecule from publication PMC6934184, “Selective DNA-PKcs inhibition extends the therapeutic index of localized radiotherapy and chemotherapy” (The Journal of Clinical Investigation, 2019) can be followed below.

The target in this assay is T1, MAP3K8 (COT) (Homo sapiens, UniProt P41279).
T1 construct: purchased Thermo Fisher Scientific (Life Technologies) SelectScreen
Kind of assay: SelectScreen Z'LYTE. The following applies: ATP 100 µM. The format is biochemical. The procedure, abridged:
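Percent values come from Thermo SelectScreen profiling of NU5455, combining activity and binding assays. CSF1R was run in Z'LYTE format at Km app ATP, and CAMK1 in Adapta format with ATP listed at 10.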

T1 sequence (P41279 whole entry): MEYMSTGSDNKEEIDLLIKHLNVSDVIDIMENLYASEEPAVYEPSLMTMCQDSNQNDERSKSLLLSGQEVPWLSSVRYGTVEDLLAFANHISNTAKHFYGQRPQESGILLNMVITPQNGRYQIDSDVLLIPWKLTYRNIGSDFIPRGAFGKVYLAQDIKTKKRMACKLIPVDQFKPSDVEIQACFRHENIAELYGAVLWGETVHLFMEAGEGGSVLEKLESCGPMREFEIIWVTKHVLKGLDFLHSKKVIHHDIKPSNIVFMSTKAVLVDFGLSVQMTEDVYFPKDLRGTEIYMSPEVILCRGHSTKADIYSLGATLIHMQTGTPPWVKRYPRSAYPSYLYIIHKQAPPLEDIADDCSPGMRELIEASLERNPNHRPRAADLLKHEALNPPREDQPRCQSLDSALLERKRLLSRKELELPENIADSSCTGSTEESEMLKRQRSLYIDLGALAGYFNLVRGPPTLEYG

For orientation: inhibition means the percentage by which the read-out fell short of the control. A higher inhibition goes with a response far below the control. `CN(C(=O)CN1CCOCC1)c1ccc2sc3c(-c4cccc5c(=O)cc(N6CC7CCC(C6)O7)oc45)cccc3c2c1` [NU5455] showed an inhibition at 1 µM of 3.5%.
